# From patent publication US10072055B2, “Anti-inflammatory pharmaceutical products” (Resother Pharma APS, priority 2011, dated 2018)
# Entries after “also recorded” stand apart in the source; their conditions may differ. Ends that are not written are not given here.
# Experiments:
# [1] = Anti-inflammatory properties, test not specified
# reperfusion injury = test: Myocardial ischemia/reperfusion injury, infarct size (LADCA occlusion); assay type: in vivo, C57/B16 mice; conditions: i.v. bolus at beginning of reperfusion; 25 min ischemia, 120 min reperfusion
# Description: (§1) Infarct size in C57/B16 mice (˜30 g body weight) following 25 min ischemia (occlusion of the left anterior descending coronary artery; [LADCA]) and 120 min reperfusion. Vehicle or UGP022 (SEQ ID NO:5) were administered i.v. (over 5 sec bolus) at beginning of reperfusion. Area at Risk was measured following re-occlusion and injection of Evans blue dye. Infarct size was determined following NBT staining of the Area at Risk. Results are mean±SEM of 4 mice per group; **P<0.01
# as §1, with “(LADCA occlusion)” for “(occlusion of the left anterior descending coronary artery; [LADCA])”, “Vehicle, UGP025” for “Vehicle or UGP022”, “NO:7) (5 μg) or UGP026 (SEQ ID NO:8) (5 μg)” for “NO:5)”
# PR3 = biological target: T1, PR3 (Homo sapiens, UniProt P24158); test: In vitro degradation/digest in the presence of PR3; assay type: in vitro ADME
# T1 sequence (P24158 28-248 limits assumed): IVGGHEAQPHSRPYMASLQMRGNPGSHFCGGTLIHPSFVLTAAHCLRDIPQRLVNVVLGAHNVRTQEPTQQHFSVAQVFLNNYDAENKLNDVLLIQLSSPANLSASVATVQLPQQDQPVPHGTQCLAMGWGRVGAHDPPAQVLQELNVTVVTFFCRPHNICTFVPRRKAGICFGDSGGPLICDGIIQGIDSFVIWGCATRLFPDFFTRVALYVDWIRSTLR
# Description: FIG. 8 is a logarithmic plot of the degradation over time of three polypeptides of the present disclosure, UGP022 (SEQ ID NO: 5), UGP025 (SEQ ID NO: 7) and UGP026 (SEQ ID NO: 8) in the presence of PR3, a protease implicated in the in vivo cleavage of Annexin 1.
# In an attempt to improve the potency and increase the half-life of the UGP022 peptide of the present disclosure (SEQ ID NO: 5), a series of in vitro PR3 and FINE digests were conducted. […] This cleavage site is not believed to have been identified in the literature.
# Degradation tests of three polypeptides of the present disclosure, UGP022 (SEQ ID NO:5), UGP025 (SEQ ID NO:7) and UGP026 (SEQ ID NO:8) in the presence of PR3, a protease implicated in the in vivo cleavage of Annexin 1, indicated better stability for polypeptides with Leucine substitution at position 24 relative to a polypeptide lacking that feature. Position 24 corresponds to position 25 of Annexin 1 because all tested polypeptides lack the methionine at position 1 of natural Annexin. A 47-residue polypeptide outperformed an otherwise identical 49-residue polypeptide. Similar results were obtained in degradation tests in the presence of FINE.
# FIG. 8 is a logarithmic plot of the degradation over time of three polypeptides of the present disclosure, UGP022 (SEQ ID NO:5), UGP025 (SEQ ID NO:7) and UGP026 (SEQ ID NO:8) in the presence of PR3, a protease implicated in the in vivo cleavage of Annexin 1. […] Also, a 47-residue polypeptide amidated at its C-terminus outperformed an otherwise identical 49-residue polypeptide amidated at its C-terminus.
# [2] = tested on: leukocyte recruitment into the inflamed airpouch; test: Mouse IL-1β air-pouch inflammation model (leukocyte migration); assay type: in vivo; conditions: mouse air-pouch
# Description: FIG. 3A and FIG. 3B are a series of bar charts comparing the anti-inflammatory effects of three polypeptides (Pep57 (SEQ ID NO:12); Pep59 (SEQ ID NO:13) and Pep84 (SEQ ID NO:14)) of the present disclosure versus a vehicle-only control.
# FIG. 3A and FIG. 3B are a series of bar charts comparing the anti-inflammatory effects of three polypeptides (Pep57 (SEQ ID NO: 12); Pep59 (SEQ ID NO: 13) and Pep84 (SEQ ID NO: 14)) of the present disclosure versus a vehicle-only control. Mice received 200 μl i.v. of saline+DMSO or a dose of 50 μg per animal of one of the three Ac2-26 derived peptides, immediately before the local injection of mouse IL-1β into 6-day-old airpouches. The extent of cell migration was determined 4 h later, following airpouch washing and staining of migrated cells with Gr1 marker. […] Data are mean±SEM of 5 mice per group. *P<0.05 vs. vehicle group (one way ANOVA).
# FPR2 = biological target: T2, FPR2 (Homo sapiens, UniProt P25090); test: FPR2 activation (ERK phosphorylation and intracellular calcium fluxes); assay type: cell-based
# T2 sequence (P25090 1-351): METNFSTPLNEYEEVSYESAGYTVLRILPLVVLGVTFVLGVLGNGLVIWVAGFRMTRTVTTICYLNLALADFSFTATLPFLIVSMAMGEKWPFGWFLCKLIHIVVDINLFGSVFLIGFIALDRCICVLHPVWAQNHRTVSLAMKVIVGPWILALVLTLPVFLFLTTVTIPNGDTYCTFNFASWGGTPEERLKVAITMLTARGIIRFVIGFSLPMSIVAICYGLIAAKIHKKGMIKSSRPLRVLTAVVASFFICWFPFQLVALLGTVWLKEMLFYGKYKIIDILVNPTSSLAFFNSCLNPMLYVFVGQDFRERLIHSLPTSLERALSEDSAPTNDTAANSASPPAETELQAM
# FPR1 = biological target: T3, FPR1 (Homo sapiens, UniProt P21462); test: FPR1 activation (ERK phosphorylation and intracellular calcium fluxes); assay type: cell-based
# T3 sequence (P21462 1-350): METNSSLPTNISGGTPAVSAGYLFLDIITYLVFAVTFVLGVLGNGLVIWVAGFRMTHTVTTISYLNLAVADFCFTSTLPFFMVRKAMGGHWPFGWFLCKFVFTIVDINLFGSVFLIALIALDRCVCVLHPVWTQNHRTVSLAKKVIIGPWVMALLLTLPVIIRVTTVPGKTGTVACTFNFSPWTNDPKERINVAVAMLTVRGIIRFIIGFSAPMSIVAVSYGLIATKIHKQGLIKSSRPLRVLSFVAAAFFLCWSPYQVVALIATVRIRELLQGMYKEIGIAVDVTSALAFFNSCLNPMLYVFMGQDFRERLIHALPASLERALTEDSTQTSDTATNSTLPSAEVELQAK
# [3] = tested on: inflamed microcirculation; test: Inflamed microcirculation in vivo; design: species or system murine
Substance,anti-inflammatory properties in vitro and in vivo [1],tissue protection / reduction of reperfusion injury (infarct size) (reperfusion injury),stability / resistance to PR3 degradation (PR3),inhibition of leukocyte infiltration/recruitment in air-pouch model [2],"in vitro results, amidated vs free acid precursor [1]",activation of FPR2 (FPR2),cleavage sites by PR3 (PR3; in vitro digest),activation of FPR1 (FPR1),anti-inflammatory properties in the inflamed microcirculation [3]
"AMVSEFLKQAWFIENEEQEYVQTLKSSKGGPGSAVSPYPTFNPSSDVAA-NH2 [UGP026, Leu25-ANXA1(2-50)-NH2]",possess anti-inflammatory properties both in vitro and in vivo,affording cardioprotection; also recorded: reduce the risk of reperfusion injury relative to a vehicle-only control,more resistant to PR3 and FINE than the UGP022 peptide,,,,,,
"AMVSEFLKQAWFIENEEQEYVQTLKSSKGGPGSAVSPYPTFNPSSDV-NH2 [UGP025, Leu25-ANXA1(2-48)-NH2]",seeming more potent,affording cardioprotection; also recorded: reduce the risk of reperfusion injury relative to a vehicle-only control,more resistant to PR3 and FINE than the UGP022 peptide,,,,,,
"AMVSEFLKQAWFIENEEQEYVQTVKSSKGGPGSAVSPYPTFNPSSDVAA-NH2 [UGP022, ANXA1(2-50)-NH2]",,potent tissue protective properties; also recorded: reduce the risk of reperfusion injury relative to a vehicle-only control,,more potent than either the UGP021 peptide; also recorded: the more potent at inhibiting leukocyte recruitment into the inflamed airpouch,shows better in vitro results than with a free acid precursor,could activate both FPR1 and FPR2,Ala 10 (Ala11 relative to Annexin 1) and Val 21 (Val22 relative to Annexin 1); also recorded: Val 24 (Val25 relative to Annexin 1),could activate both FPR1 and FPR2,potency equivalent to human recombinant Annexin A1
